Results as given in patent publication US20100173022A1, “COMPOSITION FOR THE TREATMENT OF DIABETES MELLITUS AND METABOLIC SYNDROME” (priority 2007, published 2010).

Tests used:
rat islets = experiment: in vitro insulinotropic test using rat islets; type: cell-based; details: dose 162(1 mM) micrograms; mean ± SEM
Description: In an in vitro test using rat islets, the insulinotropic ability of ADM01 was investigated against standard (tolbutamide) and placebo control.

[1] = test system: experimental diabetic rats (Streptozotocin-Nicotinamide model); experiment: 30-days study in Streptozotocin-Nicotinamide experimental diabetic rats; type: in vivo, rat; details: after 10, 20 and 30 days of treatment vs base line (0 day); P<0.05
Description: In another study the effect of ADM01 on blood glucose levels in experimental diabetic rats, using the Streptozotocin-Nicotinamide model, was investigated. After confirming the stabilization of diabetes mellitus in the experimental animals a single dose study was carried out in which the effect of a single dose administration of different dosages of ADM01 on blood glucose levels was investigated against vehicle control.
After the single dose study, a 30-days study was carried out in which the effect of daily administration of ADM01 on blood glucose levels was investigated. The effect of doses of 200, 400 and 800 mg/kg body weight respectively were investigated.

[2] = test system: streptozotocin induced type I diabetes rats; experiment: Streptozotocin induced type I diabetes model; type: in vivo, rat; details: insulin 2.5, single dose, at 2 hrs
Description: In another study streptozotocin was administered to the test animals, causing the destruction of the beta cells of pancreas. In rats a dose of STZ of 60 mg/kg ip causes stable hyperglycemia by day 7 post administration. Generally, this model mimics type I Diabetes Mellitus. Groups were treated for 15 days with ADM01, ADM01+insulin and insulin.
In the same study the effects of a single dose administration on fasting glucose levels was studied.

| Compound | Amount of insulin during stimulated insulin release (glucose, 16 mM) (rat islets) | Amount of insulin release at basal glucose levels (2 mM) (rat islets) | serum blood glucose levels [1] | serum insulin levels [1] | fall of FPG-levels [2] |
| --- | --- | --- | --- | --- | --- |
| CCCCNC(=O)NS(=O)(=O)c1ccc(C)cc1 [Tolbutamide] | 239.48 ± 11.43 picomoles/L | 107.08 ± 15.35 picomoles/L | significantly decreased | significantly increased |  |
| insulin |  |  |  |  | 23.3% |
